# Measurements published in patent US20250049970A1, “DLL3 TARGETING PEPTIDES AND CONSTRUCTS THEREOF” (MARIANA ONCOLOGY INC., priority 2023, published 2025).
# *1 amine or outer side, *2 acyl side, *3 side chain or, on linkers, in order; H or OH if unused. Where a SMILES comes first, the peptide text is derived from it. Bridges are numbered along the chain shown (N, C = ends). Side-chain parts run from the residue outwards. [ ]: non-standard residue; d: D form. The star is where a group is joined. ξ: configuration not given here. X9 = CSCC[C@H](NC(=O)c1ccc(CNC(=O)CN2CCN(CC(=O)O)CCN(CC(=O)O)CCN(CC(=O)O)CC2)cc1)C(=O)N[C@H](C(=O)N[C@@H](CCCCN*)C(=O)O)C(C)C; X10 = O=C(O)CN1CCN(CC(=O)O)CCN(CC(=O)NC2CCC(CC(=O)*)CC2)CCN(CC(=O)O)CC1; Ala(piperidin-4-yl) = O=C([C@H](CC1CCN([*:3])CC1)N[*:1])[*:2]; DOTA = O=C(O)CN1CCN(CC(=O)O)CCN(CC(=O)*)CCN(CC(=O)O)CC1; X3 = O=C([C@H](CC1CCN(CC(=O)[*:3])CC1)N[*:1])[*:2]; 2Nal = N[C@@H](Cc1ccc2ccccc2c1)C(=O)O; NMetBuAla = CN[C@@H](CC(C)(C)C)C(=O)O; Gly(4-THP) = N[C@H](C(=O)O)C1CCOCC1; Ethylenediamine = C(CN[*:2])N[*:1]; X4 = O=C(C(CC1CCNCC1)N[*:1])[*:2]; Chg = N[C@H](C(=O)O)C1CCCCC1; Tle = CC(C)(C)[C@H](N)C(=O)O; Dab = NCC[C@H](N)C(=O)O; ξN = NC(=O)CC(N)C(=O)O; CH2 = C([*:1])[*:2]; ξC = NC(CS)C(=O)O; Sar = CNCC(=O)O
# Target: T1, DLL3 (Homo sapiens, UniProt Q9NYJ7)
# T1 sequence (Q9NYJ7 27-618): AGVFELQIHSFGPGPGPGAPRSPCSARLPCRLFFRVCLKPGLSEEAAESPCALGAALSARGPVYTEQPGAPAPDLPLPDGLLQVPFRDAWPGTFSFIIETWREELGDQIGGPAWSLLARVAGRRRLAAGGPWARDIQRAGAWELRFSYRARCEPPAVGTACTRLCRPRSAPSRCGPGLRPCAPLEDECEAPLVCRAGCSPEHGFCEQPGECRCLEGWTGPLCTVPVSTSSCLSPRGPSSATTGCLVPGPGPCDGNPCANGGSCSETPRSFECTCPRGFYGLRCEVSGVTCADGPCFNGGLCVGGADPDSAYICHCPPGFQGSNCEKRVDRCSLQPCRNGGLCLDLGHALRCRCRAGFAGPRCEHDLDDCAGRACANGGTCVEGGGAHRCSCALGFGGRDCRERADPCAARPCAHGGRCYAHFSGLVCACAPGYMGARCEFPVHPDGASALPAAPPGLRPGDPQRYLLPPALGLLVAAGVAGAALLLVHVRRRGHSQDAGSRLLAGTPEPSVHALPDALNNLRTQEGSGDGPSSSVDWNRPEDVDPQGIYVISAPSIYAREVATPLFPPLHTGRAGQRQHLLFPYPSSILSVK
# Assay: SPR KD, biotinylated human DLL3 on streptavidin chip (Table 8)
# Set-up: biotin (biotinylated)
# Conditions: biotinylated human DLL3 on streptavidin sensor chip, 25° C., 1:1 binding model; read-out: SPR KD
# Text: Biotinylated target ligand human DLL3 was immobilized on a streptavidin sensor chip. A reference surface was set up for nonspecific binding and refractive index changes. […] Sensorgram curves were fitted with 1:1 binding model, and affinity and kinetic parameters were obtained using Biacore Insight evaluation 4.0. software.
row,Structure (SMILES),Kd
1,"CSCC[C@H](NC(C)=O)C(=O)N[C@@H](Cc1c[nH]c2ccccc12)C(=O)N[C@H](C(=O)N[C@@H](C)C(=O)N[C@H]1CSSC[C@@H](C(=O)N[C@@H](Cc2c[nH]c3ccccc23)C(=O)N2CCC[C@H]2C(N)=O)NC(=O)[C@H](CC(=O)O)NC(=O)[C@H](Cc2c[nH]cn2)NC(=O)[C@H](Cc2c[nH]c3ccccc23)NC(=O)[C@H](CC(N)=O)NC(=O)[C@H](CC(N)=O)NC1=O)[C@@H](C)O [compound 14, Ac-M-W-T-(L-Ala)-C(3)-N-N-W-H-D-C(3)-W-P-CONH2] (Ac-MWTACNNWHDCWP-NH2; disulfide 5-11)",10 to 100 nM
2,CC(=O)N[C@@H](Cc1c[nH]c2ccccc12)C(=O)N[C@H](C(=O)N(C)[C@@H](CC(C)(C)C)C(=O)N[C@H]1CSCSC[C@@H](C(=O)N[C@@H](Cc2c[nH]c3ccccc23)C(=O)N2CCC[C@H]2C(N)=O)NC(=O)[C@H](CC(=O)O)NC(=O)[C@H](CCCCNC(=O)CN2CCN(CC(=O)O)CCN(CC(=O)O)CCN(CC(=O)O)CC2)NC(=O)[C@H](Cc2ccc3ccccc3c2)NC(=O)[C@H](CC(N)=O)NC(=O)[C@H](CC2CCNCC2)NC1=O)[C@@H](C)O [compound 153] (Ac-WT[NMetBuAla]C[Ala(piperidin-4-yl)]N[2Nal]K(DOTA)DCWP-NH2; linker 4-10 via CH2),< 1 nM
3,"CC(=O)N[C@@H](Cc1c[nH]c2ccccc12)C(=O)N[C@H](C(=O)N[C@H](C(=O)N[C@H]1CSSC[C@@H](C(=O)N[C@@H](Cc2c[nH]c3ccccc23)C(=O)N2CCC[C@H]2C(N)=O)NC(=O)[C@H](CC(=O)O)NC(=O)[C@H](CCCCNC(=O)CN2CCN(CC(=O)O)CCN(CC(=O)O)CCN(CC(=O)O)CC2)NC(=O)[C@H](Cc2ccc3ccccc3c2)NC(=O)[C@H](CC(N)=O)NC(=O)C(CC2CCNCC2)NC1=O)C1CCOCC1)[C@@H](C)O (stereo partly drawn) [compound 319, Ac-W-T-(THPG)-C(3)-[3-(4-piperidinyl)-Ala]-N-(2Nal)-Lys(DOTA)-D-C(3)-W-P-CONH2] (Ac-WT[Gly(4-THP)]C[X4]N[2Nal]K(DOTA)DCWP-NH2; disulfide 4-10)",< 1 nM
4,"CC[C@H](C)[C@H](NC(=O)[C@@H](NC(=O)[C@H](Cc1c[nH]c2ccccc12)NC(=O)[C@H](CCSC)NC(C)=O)[C@@H](C)O)C(=O)N[C@H]1CSSC[C@@H](C(=O)N[C@@H](Cc2c[nH]c3ccccc23)C(=O)N2CCC[C@H]2C(N)=O)NC(=O)[C@H](CC(=O)O)NC(=O)[C@H](Cc2cnc[nH]2)NC(=O)[C@H](Cc2c[nH]c3ccccc23)NC(=O)[C@H](CC(N)=O)NC(=O)[C@H](C)NC1=O [compound 15, Ac-M-W-T-I-C(3)-(L-Ala)-N-W-H-D-C(3)-W-P-CONH2] (Ac-MWTICANWHDCWP-NH2; disulfide 5-11)",1 to 10 nM
5,"CC[C@@H](C)[C@H](NC(=O)[C@@H](NC(=O)[C@H](Cc1c[nH]c2ccccc12)NC(C)=O)[C@@H](C)O)C(=O)N[C@H]1CSSC[C@@H](C(=O)N[C@@H](Cc2c[nH]c3ccccc23)C(=O)N2CCC[C@H]2C(N)=O)NC(=O)[C@H](CC(=O)O)NC(=O)[C@H](CCCCNC(=O)CN2CCN(CC(=O)O)CCN(CC(=O)O)CCN(CC(=O)O)CC2)NC(=O)[C@H](Cc2ccc3ccccc3c2)NC(=O)[C@H](CC(N)=O)NC(=O)C(CN2CCOCC2)NC1=O (single isomer, unassigned) [compound 307, Ac-W-T-(Allo-Ile)-C(3)-[3-(1-morpholinyl)-Ala]-N-(2Nal)-Lys(DOTA)-D-C(3)-W-P-CONH2]",1 to 10 nM
6,"CC[C@@H](C)[C@@H](NC(=O)[C@H](NC(=O)[C@@H](Cc1c[nH]c2ccccc12)NC(C)=O)[C@H](C)O)C(=O)N[C@H]1CC(=O)NCC[C@@H](C(=O)N[C@@H](Cc2c[nH]c3ccccc23)C(=O)N2CCC[C@H]2C(N)=O)NC(=O)[C@H](CC(=O)O)NC(=O)[C@H](Cc2c[nH]cn2)NC(=O)[C@H](Cc2c[nH]c3ccccc23)NC(=O)[C@H](CC(N)=O)NC(=O)[C@H](CC(N)=O)NC1=O [compound 95, Ac-W-T-I-(L-Asp)*-N-N-W-H-D-(L-2,4-Dab)*-W-P-CONH2 (* denotes lactam between side chains between L-Asp and L-2,4-Dab)] (Ac-[dW][dT][dI]DNNWHD[Dab]WP-NH2; lactam 4-10)",100 to 300 nM
7,"CC(=O)N[C@@H](Cc1c[nH]c2ccccc12)C(=O)N[C@H](C(=O)N[C@H](C(=O)N[C@H]1CSSCC(C(=O)N[C@@H](Cc2c[nH]c3ccccc23)C(=O)N2CCC[C@H]2C(N)=O)NC(=O)[C@H]([C@@H](C)O)NC(=O)[C@@H](CCCCNC(=O)CN2CCN(CC(=O)O)CCN(CC(=O)O)CCN(CC(=O)O)CC2)NC(=O)[C@H](Cc2ccc3ccccc3c2)NC(=O)[C@H](CC(N)=O)NC(=O)[C@H](CC2CCNCC2)NC1=O)C1CCOCC1)[C@@H](C)O (stereo partly shown) [compound 328, Ac-W-T-(THPG)-C(3)-[3-(4-piperidinyl)-Ala]-N-(2Nal)-Lys(DOTA)-(Thr)-C(3)-W-P-CONH2] (Ac-WT[Gly(4-THP)]C[Ala(piperidin-4-yl)]N[2Nal][dK](DOTA)T[ξC]WP-NH2; disulfide 4-10)",< 1 nM

# The next lines start with the values.
row,Kd,Structure (SMILES)
1,< 1 nM,"CCCCCCCCCCCCCCCC(=O)N[C@@H](CCC(=O)NCCOCCOCCOCCOCCOCCOCCOCCOCCOCCOCCOCCOCCOCCOCCOCCOCCOCCOCCOCCOCCOCCOCCOCCOCCC(=O)NCCCC[C@H](NC(=O)CN1CCC(C[C@@H]2NC(=O)[C@@H](NC(=O)[C@H](CC(C)(C)C)N(C)C(=O)[C@@H](NC(=O)[C@H](Cc3c[nH]c4ccccc34)NC(C)=O)[C@@H](C)O)CSCSC[C@@H](C(=O)N[C@@H](Cc3c[nH]c4ccccc34)C(=O)N3CCC[C@H]3C(N)=O)NC(=O)[C@H](CC(=O)O)NC(=O)[C@H](CCCCNC(=O)CN3CCN(CC(=O)O)CCN(CC(=O)O)CCN(CC(=O)O)CC3)NC(=O)[C@H](Cc3ccc4ccccc4c3)NC(=O)[C@H](CC(N)=O)NC2=O)CC1)C(=O)O)C(=O)O [compound 450, Ac-W-T-(NMe-tBuAla)-C(1)-[PipA(acetic-Lys-PEG24-gE-palmitoyl)]-N-(2Nal)-Lys(DOTA)-D-C(1)-W-P-CONH2]"
2,1 to 10 nM,"CC(=O)N[C@@H](Cc1c[nH]c2ccccc12)C(=O)N[C@H](C(=O)N[C@H](C(=O)N[C@H]1CSSC[C@@H](C(=O)N[C@@H](Cc2c[nH]c3ccccc23)C(=O)N2CCC[C@H]2C(N)=O)NC(=O)[C@H](CC(=O)O)NC(=O)[C@H](Cc2cnc[nH]2)NC(=O)[C@H](Cc2c[nH]c3ccccc23)NC(=O)[C@H](CC(N)=O)NC(=O)[C@H](CC(N)=O)NC1=O)C1CCOCC1)[C@@H](C)O [compound 338, Ac-W-T-(THPG)-C(3)-N-N-W-H-D-C(3)-W-P-CONH2] (Ac-WT[Gly(4-THP)]CNNWHDCWP-NH2; disulfide 4-10)"
3,10 to 100 nM,"CC[C@H](C)[C@H](NC(=O)[C@@H](NC(=O)[C@H](Cc1c[nH]c2ccccc12)NC(C)=O)[C@@H](C)O)C(=O)N[C@H]1CSSC[C@@H](C(=O)N[C@@H](Cc2c[nH]c3ccccc23)C(=O)N(C)CC(N)=O)NC(=O)[C@H](CC(=O)O)NC(=O)[C@H](Cc2cnc[nH]2)NC(=O)[C@H](Cc2c[nH]c3ccccc23)NC(=O)[C@H](CC(N)=O)NC(=O)[C@H](CC(N)=O)NC1=O [compound 334, Ac-W-T-I-C(3)-N-N-W-H-D-C(3)-W-(Sar)-CONH2] (Ac-WTICNNWHDCW[Sar]-NH2; disulfide 4-10)"
4,< 1 nM,CC(=O)N[C@@H](Cc1c[nH]c2ccccc12)C(=O)N[C@H](C(=O)N(C)[C@@H](CC(C)(C)C)C(=O)N[C@H]1CSCSC[C@@H](C(=O)N[C@@H](Cc2c[nH]c3ccccc23)C(=O)N2CCC[C@H]2C(N)=O)NC(=O)[C@H](CC(=O)O)NC(=O)[C@H](CCCCNC(=O)CN2CCN(CC(=O)O)CCN(CC(=O)O)CCN(CC(=O)O)CC2)NC(=O)[C@H](Cc2ccc3ccccc3c2)NC(=O)[C@H](CC(N)=O)NC(=O)[C@H](CC2CCN(CC(=O)NCCNC(=O)CN3CCN(CC(=O)O)CCN(CC(=O)O)CCN(CC(=O)O)CC3)CC2)NC1=O)[C@@H](C)O [compound 449] (Ac-WT[NMetBuAla]C[X3]([Ethylenediamine-DOTA])N[2Nal]K(DOTA)DCWP-NH2; linker 4-10 via CH2)
5,< 1 nM,"CC(=O)N[C@@H](Cc1c[nH]c2ccccc12)C(=O)N[C@H](C(=O)N[C@H](C(=O)N[C@H]1CSCSC[C@@H](C(=O)N[C@@H](Cc2c[nH]c3ccccc23)C(=O)N2CCC[C@H]2C(N)=O)NC(=O)[C@H](CC(=O)O)NC(=O)[C@H](CCCCNC(=O)CC2CCC(NC(=O)CN3CCN(CC(=O)O)CCN(CC(=O)O)CCN(CC(=O)O)CC3)CC2)NC(=O)[C@H](Cc2ccc3ccccc3c2)NC(=O)C(CC(N)=O)NC(=O)[C@H](CC2CCNCC2)NC1=O)C1CCCCC1)[C@@H](C)O (stereo partly drawn) [compound 432, Ac-W-T-(Chg)-C(1)-[3-(4-piperidinyl)-Ala]-N-(2Nal)-Lys(Chx-DOTA)-D-C(1)-W-P-CONH2] (Ac-WT[Chg]C[Ala(piperidin-4-yl)][ξN][2Nal]K(X10)DCWP-NH2; linker 4-10 via CH2)"
6,1 to 10 nM,CSCC[C@H](NC(=O)c1ccc(CNC(=O)CN2CCN(CC(=O)O)CCN(CC(=O)O)CCN(CC(=O)O)CC2)cc1)C(=O)N[C@H](C(=O)N[C@@H](CCCCNC(=O)CC[C@@H]1NC(=O)[C@H](Cc2ccc3ccccc3c2)NC(=O)[C@H](CC(N)=O)NC(=O)[C@H](CC2CCNCC2)NC(=O)[C@@H](NC(=O)[C@@H](NC(=O)[C@@H](NC(=O)[C@H](Cc2c[nH]c3ccccc23)NC(C)=O)[C@@H](C)O)C(C)(C)C)CSSC[C@@H](C(=O)N[C@@H](Cc2c[nH]c3ccccc23)C(=O)N2CCC[C@H]2C(N)=O)NC(=O)[C@H](CC(=O)O)NC1=O)C(=O)O)C(C)C [compound 377] (Ac-WT[Tle]C[Ala(piperidin-4-yl)]N[2Nal]E(X9)DCWP-NH2; disulfide 4-10)
